Experimental data: US9550763B2, “Heterocyclic ring and carbocyclic derivative” (Shionogi & Co., Ltd., priority 2012, dated 2017)

Experiments:
[1] = biological target: human P2X3 receptor (Homo sapiens (Human), UniProt P56373); experiment: Evaluation of human P2X3 receptor inhibitory activity (Test Example 1-2, FLIPR 384, 384-well, 150 nM ATP); assay type: cell-based; conditions: human P2X3 receptor in C6BU-1 cells; Test Example 1-2 (compounds I-301 to I-483); read-out: P2X3 IC50
Summary of the method: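 Human P2X3 stably expressed in C6BU-1 cells, Fluo-3-AM loaded, read on FLIPR at pH 7.5 HEPES buffer. Compound added 5 min before 150 nM ATP; peak/baseline fluorescence over 4 min gave inhibition (buffer instead of ATP = 100%), from which IC50 was derived.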

[2] = biological target: Rat P2X3 receptor (Rattus norvegicus (Rat), UniProt P49654); experiment: Evaluation of rat P2X3 receptor inhibitory activity in the presence of rat serum albumin (RSA) (Test Example 3-2); assay type: cell-based; conditions: rat P2X3 receptor in C6BU-1 cells
Sequence of Rat P2X3 receptor (P49654 whole entry): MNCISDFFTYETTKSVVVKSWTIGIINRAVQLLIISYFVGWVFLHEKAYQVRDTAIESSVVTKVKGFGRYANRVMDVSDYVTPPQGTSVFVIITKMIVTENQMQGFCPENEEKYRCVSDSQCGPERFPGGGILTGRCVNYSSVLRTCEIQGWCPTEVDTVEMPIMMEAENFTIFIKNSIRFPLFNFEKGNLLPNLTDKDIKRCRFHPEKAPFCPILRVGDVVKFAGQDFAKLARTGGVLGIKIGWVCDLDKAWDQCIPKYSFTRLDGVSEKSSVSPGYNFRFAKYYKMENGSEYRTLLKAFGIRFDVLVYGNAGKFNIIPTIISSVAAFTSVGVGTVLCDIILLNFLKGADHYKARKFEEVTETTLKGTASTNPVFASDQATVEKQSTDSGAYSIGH
Experimental: Rat P2X3 receptor gene (GenBank accession number NM_031075) was expressed in C6BU-1 cell. The C6BU-1 cells were seeded in a 96-well microtiter plate at a concentration of 2500 cells/well and cultured in the medium (7.0% fetal bovine serum, 7.0% horse serum, and 1% antibiotic and antifungal in DMEM) for one day at 37° C. under 5% carbon dioxide atmosphere. The plasmid was transfected into the cells using transfection reagent FuGENEG (Roche). The transfected cells were cultured in the medium for one day at 37° C. under 5% carbon dioxide atmosphere. The medium was replaced with 4 μM Fluo-3-AM solution (pH7.5) containing 20 mM HEPES, […], 5.27 mM KCl, 0.9 mM MgCl2, 1.26 mM CaCl2, 5.6 mM D-glucose, 2.5 mM probenecid, 1% BSA, and 0.08% Pluronic F-127, and incubated at 37° C. under 5% dioxide carbon atmosphere for one hour. The plate was washed with washing buffer (20 mM HEPES, 137 mM NaCl, 5.27 mM KCl, 0.9 mM MgCl2, 1.26 mM CaCl2, 5.6 mM D-glucose, 2.5 mM probenecid, pH7.5), and each well was added with 40 μL of this buffer. The plate was placed in High-Throughput Screening System FDSS 3000 (Hamamatsu Photonics K.K.). Measurement of fluorescence intensity by FDSS 3000 was started, and 40 μL of DMSO solutions containing 1% RSA (final concentrations) and different concentrations of the test compound as prepared by dilution with dilution buffer (20 mM HEPES, 137 mM NaCl, 5.27 mM KCl, 0.9 mM MgCl2, 1.26 mM CaCl2, 5.6 mM D-glucose, 2.5 mM probenecid, 0.1% Pluronic F-127, pH7.5) were dispensed to each well through the built-in automatic dispenser. Five minutes after, 50 nM ATP solution (50 μL) prepared by dilution with the dilution buffer was dispensed through the built-in automatic dispenser, and the measurement of fluorescence intensity was continued for 4 min. For each well, the specific maximum fluorescence intensity was calculated as the ratio of the maximum fluorescence intensity after addition of the ATP solution to the fluorescence intensity at the starting of the measurement. The 50% inhibitory concentration (IC50) was calculated under the assumption that the specific maximum fluorescence intensity without test compound is 0% inhibition and that the specific maximum fluorescence intensity when the dilution buffer was added in place of ATP solution is 100% inhibition, to evaluate the inhibitory activity of the test compound. FDSS software (Hamamatsu Photonics K.K.) was used for calculation of the specific maximum fluorescence intensity. IC50 was calculated using Microsoft Excel (Microsoft Corporation) and XLfit (idbs Ltd.).

Sequence of human P2X3 receptor (P56373 whole entry): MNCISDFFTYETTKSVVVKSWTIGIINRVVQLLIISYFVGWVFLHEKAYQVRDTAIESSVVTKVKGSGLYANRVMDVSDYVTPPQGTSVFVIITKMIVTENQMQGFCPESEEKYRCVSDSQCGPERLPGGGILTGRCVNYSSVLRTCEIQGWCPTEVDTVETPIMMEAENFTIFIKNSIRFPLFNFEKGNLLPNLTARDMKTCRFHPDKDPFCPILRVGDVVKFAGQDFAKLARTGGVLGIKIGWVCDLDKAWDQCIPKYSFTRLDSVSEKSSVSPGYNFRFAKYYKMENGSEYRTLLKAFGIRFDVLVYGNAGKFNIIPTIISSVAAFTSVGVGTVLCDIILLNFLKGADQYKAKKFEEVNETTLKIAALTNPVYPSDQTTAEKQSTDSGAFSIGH

Cc1nc(Nc2cc(=O)n([C@@H](C)[C@@H](C)C(=O)O)c(=O)n2Cc2ccc(Cl)cc2)ccc1Oc1ccc(F)nc1 [Compound I-339]
IC50 [1]: 9 nM | IC50 [2]: 12 nM
